In US3971779A, “7-[2-(5-Amino-1,3,4-thiadiazol-2-ylthio)acetamido]cephalosporins” (American Home Products Corporation, priority 1975, dated 1976):
Values after ≈ are worked out from the molar mass of the structure shown. Values joined by “and” are separate entries in the source; they are usually repeats but may differ in a detail not shown here. Identical values can stand only once.

Legend:
[1] = system: Acinetobacter calcoaceticus 9957; assay: agar serial dilution MIC; type: cell-based; conditions: Example 4, read-out: MIC
Description: (§1) A stock solution of 7-[2-(4,5-dihydro-5-imino-1,3,4-thiadiazol-2-ylthio)acetamido]cephalosporanic acid as the hydrobromic acid addition salt containing 2,500 μg. of the active moiety is prepared in phosphate buffer. Two fold serial dilutions are prepared with phosphate buffer. One milliliter (ml.) quantities of each dilution are incorporated in 9 ml. seen agar in sterile Petri plates. The hardened surface is innoculated with test organisms using a Steers replicating device. The plates are incubated at 35° C. for 18 hours.
(§2) The test organisms are Bacillus subtilis (BA SU) 6633; Staphylococcus aureus (ST AU) 6538P, Smith CHP, and 3-180; Mycobacterium smegmatis (MY SM) 10143; Neisseria catarrhalis (NE CA) 8193; Pseudonomas aeruginosa (PS AE) 10145; Escherichia coli (ES CO) 9637, and 920; Escherichia intermedia (ES IN) 65-1; Salmonella paratyphi (SA PA) 11737; Enterobacter aerogenes (EN AE) 13048; Klebsiella pneumoniae (KL PN) 10031; Bordetella bronchiseptica (BO BR) 4617; Proteus vulgaris (PR VU) 6896; and Herellea species (HE SP) 9955. These organisms are grown for 18 hours in Brain heart infusion at 35° C. Prior to use the cultures are diluted 10 fold with the infusion, except in the case of Mycobacterium. The latter is grown in Emerson's broth for 5 days at 28° C. in shaker flasks and used undiluted.
(§3) Following the procedure of Example 2 but substituting the organisms listed below the same preparation of 7-[2-(4,5-dihydro-5-imino-1,3,4-thiadiazol-2-ylthio)acetamido]cephalosporanic acid (Compound A) as used in Example 3, a third sample of the same compound, prepared as described in Example 1 (Compound B) and 7-[2-(5-acetamido-1,3,4-thiadiazol-2-ylthio)acetamido]cephalosporanic acid (Compound C) are tested to obtain the results shown: […]

Arizona arizonae 13314 = assay: agar serial dilution MIC; type: cell-based; conditions: Salmonella enterica, 13314, Example 4
Description: as §1, §2, §3

[2] = system: Citrobacter diversus 27156; assay: agar serial dilution MIC; type: cell-based; conditions: Citrobacter koseri, Example 4
Description: as §1, §2, §3

[3] = system: Citrobacter freundii 8090; assay: agar serial dilution MIC; type: cell-based; conditions: Example 4
Description: as §1, §2, §3

Edwardsiella tarda 15947 = assay: agar serial dilution MIC; type: cell-based; conditions: Edwardsiella tarda, 15947; Example 4; read-out: MIC
Description: as §1, §2, §3

[4] = system: Enterobacter agglomerans 27155; assay: agar serial dilution MIC; type: cell-based; conditions: Pantoea agglomerans, 27155; Example 4; read-out: MIC
Description: as §1, §2, §3

[5] = system: Enterobacter cloacae 13047; assay: agar serial dilution MIC; type: cell-based; conditions: Example 4
Description: as §1, §2, §3

[6] = system: Enterobacter havniae 11604; assay: agar serial dilution MIC; type: cell-based; conditions: Example 4
Description: as §1, §2, §3

Klebsiella ozaenae 11296 = assay: agar serial dilution MIC; type: cell-based; conditions: Example 4, read-out: MIC
Description: as §1, §2, §3

[7] = system: Klebsiella pneumoniae 13883; assay: agar serial dilution MIC; type: cell-based; conditions: Klebsiella pneumoniae, 13883, Example 4
Description: as §1, §2, §3

[8] = system: Klebsiella rhinoscleromatis 13884; assay: agar serial dilution MIC; type: cell-based; conditions: Klebsiella pneumoniae, Example 4
Description: as §1, §2, §3

Proteus mirabilis 9921 = assay: agar serial dilution MIC; type: cell-based; conditions: Example 4
Description: as §1, §2, §3

[9] = system: Providencia alcalifaciens 9886; assay: agar serial dilution MIC; type: cell-based; conditions: Example 4
Description: as §1, §2, §3

[10] = system: Providencia stuartii 25825; assay: agar serial dilution MIC; type: cell-based; conditions: Example 4
Description: as §1, §2, §3

[11] = system: Salmonella cholera-suis 13312; assay: agar serial dilution MIC; type: cell-based
Description: as §1, §2, §3

[12] = system: Salmonella enteritidis 13076; assay: agar serial dilution MIC; type: cell-based; conditions: Salmonella enterica, Example 4
Description: as §1, §2, §3

Salmonella typhi 19430 = assay: agar serial dilution MIC; type: cell-based; conditions: Salmonella enterica
Description: as §1, §2, §3

[13] = system: Serratia liquefaciens 27592; assay: agar serial dilution MIC; type: cell-based; conditions: Example 4
Description: as §1, §2, §3

[14] = system: Serratia marcescens 13880; assay: agar serial dilution MIC; type: cell-based; conditions: Example 4
Description: as §1, §2, §3

Serratia rubidae 27593 = assay: agar serial dilution MIC; type: cell-based; conditions: Example 4
Description: as §1, §2, §3

Shigella boydii 9207 = assay: agar serial dilution MIC; type: cell-based; conditions: Example 4
Description: as §1, §2, §3

Shigella flexneri 12025 = assay: agar serial dilution MIC; type: cell-based; conditions: Shigella flexneri, 12025, Example 4; read-out: MIC
Description: as §1, §2, §3

Shigella sonnei 11060 = assay: agar serial dilution MIC; type: cell-based; conditions: Example 4
Description: as §1, §2, §3

[15] = system: Staphylococcus aureaus CHP; assay: mice infected intraperitoneally, single dose six hours post-infection, deaths and CD50; type: in vivo; conditions: for ED50: Staphylococcus
Description: Mice are infected intraperitoneally with a standardized suspension of Staphylococcus aureaus CHP in 5% gastric mucin. The animals are randomized. Six hours post-infection a single dose of the compound indicated is administered by the route indicated. The animals are observed for a 30 day period and deaths are recorded daily. The CD50 for 14 and 30 days as determined by the method of Reed and Muench, American Journal of Hygiene (1938), for each compound is tabulated:
7-[2-(5-Acetylamino-1,3,4-thiadiazol-2-ylthio)acetamido]cephalosporanic acid is tested as described in Example 5.

[16] = sc, 336 h, subcutaneous, 14 Days, single dose, mice
[17] = sc, 720 h, subcutaneous, 30 Days, single dose, mice
[18] = subcutaneous, 50 mg/kg., 14 Days
[19] = subcutaneous, 50 mg/kg., 30 Days
[20] = subcutaneous, 100 mg/kg., 14 Days
[21] = subcutaneous, 100 mg/kg., 30 Days
[22] = subcutaneous, 200 mg/kg., 14 Days
[23] = subcutaneous, 200 mg/kg., 30 Days
[24] = subcutaneous, 400 mg/kg., 14 Days
[25] = subcutaneous, 400 mg/kg., 30 Days
[26] = subcutaneous, 14 Days, single dose, mice, 20160 min

Q: What does the source list for `CC(=O)Nc1nnc(SCC(=O)NC2C(=O)N3C(C(=O)O)=C(COC(C)=O)CSC23)s1` (stereo not drawn) [Compound C, 7-[2-(5-acetamido-1,3,4-thiadiazol-2-ylthio)acetamido]cephalosporanic acid, reference compound]?
A: MIC [1]: 250 µg/mL (≈ 513 µM); MIC (Arizona arizonae 13314): 31.3 µg/mL (≈ 64.2 µM); MIC [2]: 15.6 µg/mL (≈ 32 µM); MIC [3]: > 250 µg/mL; MIC (Edwardsiella tarda 15947): 7.81 µg/mL (≈ 16 µM); MIC [4]: 7.81 µg/mL (≈ 16 µM); MIC [5]: > 250 µg/mL; MIC [6]: 250 µg/mL (≈ 513 µM); MIC (Klebsiella ozaenae 11296): 7.81 µg/mL (≈ 16 µM); MIC [7]: 62.5 µg/mL (≈ 128 µM); MIC [8]: > 250 µg/mL; MIC (Proteus mirabilis 9921): 15.6 µg/mL (≈ 32 µM); MIC [9]: > 250 µg/mL; MIC [10]: 250 µg/mL (≈ 513 µM); MIC [11]: 15.6 µg/mL (≈ 32 µM); MIC [12]: 31.3 µg/mL (≈ 64.2 µM); MIC (Salmonella typhi 19430): 15.6 µg/mL (≈ 32 µM); MIC [13]: > 250 µg/mL; MIC [14]: > 250 µg/mL; MIC (Serratia rubidae 27593): > 250 µg/mL; MIC (Shigella boydii 9207): 31.3 µg/mL (≈ 64.2 µM); MIC (Shigella flexneri 12025): 15.6 µg/mL (≈ 32 µM); MIC (Shigella sonnei 11060): 62.5 µg/mL (≈ 128 µM); ED50 ([15]; po, Example 6, mice): > 7.2 mg/kg; oral activity against the test organism ([15]; oral, Example 6, mice): lack of significant oral activity

Q: How did the ED50 [15, 16] turn out when `Cc1nnc(SCC2=C(C(=O)O)N3C(=O)[C@@H](NC(=O)Cn4cnnn4)[C@H]3SC2)s1` [Cefazolin] was run?
A: The ED50 was 6.41 mg/kg.

Q: And the ED50 [15, 17]?
A: Its ED50 is 7.2 mg/kg.

Q: And the “Deaths / Total No. Treated” value [15, 18]?
A: Its value is 10/10.

Q: And the “Deaths / Total No. Treated” value [15, 19]?
A: The value was 10/10.

Q: What about the “Deaths / Total No. Treated” value [15, 20] of the same compound?
A: Its value is 10/10 and 8/10.

Q: What about the “Deaths / Total No. Treated” value [15, 21] of the same compound?
A: Its value is 10/10.

Q: What about the “Deaths / Total No. Treated” value [15, 22] of the same compound?
A: Its value is 10/10.

Q: And the “Deaths / Total No. Treated” value [15, 23]?
A: The value was 10/10.

Q: What about the “Deaths / Total No. Treated” value [15, 24] of the same compound?
A: Its value is 4/10.

Q: What about the “Deaths / Total No. Treated” value [15, 25] of the same compound?
A: The value was 5/10.

Q: And the CD50 [15, 26]?
A: Its CD50 is 5.82 mg/kg.

Q: `CCOc1ccc2ccccc2c1C(=O)N[C@@H]1C(=O)N2[C@@H]1SC(C)(C)[C@@H]2C(=O)O` [Nafcillin] was tested. Which ED50 [15, 16] did it give?
A: Its ED50 is 3.12 mg/kg.

Q: And the ED50 [15, 17]?
A: Its ED50 is 3.9 mg/kg.

Q: And the “Deaths / Total No. Treated” value [15, 18]?
A: The value was 9/10 and 10/10.

Q: What about the “Deaths / Total No. Treated” value [15, 19] of the same compound?
A: Its value is 9/10 and 10/10.

Q: What about the “Deaths / Total No. Treated” value [15, 20] of the same compound?
A: Its value is 9/10 and 7/10.

Q: What about the “Deaths / Total No. Treated” value [15, 21] of the same compound?
A: The value was 10/10 and 7/10.

Q: What about the “Deaths / Total No. Treated” value [15, 22] of the same compound?
A: The value was 3/10 and 4/10.

Q: And the “Deaths / Total No. Treated” value [15, 23]?
A: Its value is 4/10.

Q: And the “Deaths / Total No. Treated” value [15, 24]?
A: Its value is 3/10 and 4/10.

Q: What about the “Deaths / Total No. Treated” value [15, 25] of the same compound?
A: The value was 4/10.

Q: What about the CD50 [15, 26] of the same compound?
A: Its CD50 is 3.41 mg/kg.

Q: What about the CD50 ([15]; subcutaneous, 30 Days, single dose, mice, 43200 min) of the same compound?
A: The CD50 was 3.41 mg/kg.
